This passage reports half-life results from patent US9982017B2, “Synthetic apelin mimetics for the treatment of heart failure” (priority 2012, dated 2018).

Where a SMILES comes first, the peptide text is derived from it. Bridges are numbered along the chain shown (N, C = ends). [ ]: non-standard residue; d: D form. The star is where a group is joined. Myristoyl = CCCCCCCCCCCCCC(=O)*; pGlu = O=C1CC[C@@H](C(=O)O)N1; NHPhenethyl = c1ccc(CCN*)cc1; hCys = N[C@@H](CCS)C(=O)O; Nle = CCCC[C@H](N)C(=O)O; AEEA = NCCOCCOCC(=O)O; Aib = CC(C)(N)C(=O)O; Inp = O=C(O)C1CCNCC1

The nature of this data set: in vitro. The settings on record: rat, not told, Surrogate activity-based Plasma stability t½.
In turn, `CCCC[C@@H]1NC(=O)[C@@H]2CCCN2C(=O)CNC(=O)[C@H](CCCCN)NC(=O)[C@H](Cc2c[nH]cn2)NC(=O)[C@@H](NC(=O)[C@H](CC(C)C)NC(=O)[C@H](CCCNC(=N)N)NC(=O)[C@@H]2CCCN2C(=O)[C@H](CCCNC(=N)N)NC(=O)[C@@H]2CCC(=O)N2)CSSC[C@@H](C(=O)N[C@@H](CCC(=O)O)C(=O)O)NC1=O` [Example 49, pE-R-P-R-L-C-H-K-G-P-Nle-C-E-OH] ([pGlu]RPRLCHKGP[Nle]CE-OH; disulfide 6-12) came in with a half-life above 1000 min. Consider `CCCC[C@@H]1NC(=O)[C@@H]2CCCN2C(=O)CNC(=O)[C@H](CCCCN)NC(=O)[C@H](Cc2c[nH]cn2)NC(=O)[C@@H](NC(=O)[C@H](CC(C)C)NC(=O)[C@H](CCCNC(=N)N)NC(=O)[C@@H]2CCCN2C(=O)[C@H](CCCNC(=N)N)NC(=O)[C@@H]2CCC(=O)N2)CSSC[C@@H](C(=O)O)NC1=O` [Example 50, pE-R-P-R-L-C-H-K-G-P-Nle-C-OH] ([pGlu]RPRLCHKGP[Nle]C-OH; disulfide 6-12), for which the half-life is above 1000 min. As for `CCCC[C@@H]1NC(=O)[C@@H]2CCCN2C(=O)CNC(=O)[C@H](Cc2ccccc2)NC(=O)[C@H](Cc2c[nH]cn2)NC(=O)[C@@H](NC(=O)[C@H](CC(C)C)NC(=O)[C@H](CCCNC(=N)N)NC(=O)[C@@H]2CCCN2C(=O)[C@H](CCCNC(=N)N)NC(=O)[C@@H]2CCC(=O)N2)CCCCNC(=O)CC[C@@H](C(=O)NCCc2ccccc2)NC1=O` [Example 2, pE-R-P-R-L-K-H-F-G-P-Nle-E-Phenethylamine] ([pGlu]RPRLKHFGP[Nle]E-NHPhenethyl; lactam 6-12), the half-life was 27.1 min. Then `CCCC[C@@H]1NC(=O)[C@@H]2CCCN2C(=O)CNC(=O)[C@H](CCC(=O)O)NC(=O)[C@H](Cc2c[nH]cn2)NC(=O)[C@@H](NC(=O)[C@H](CC(C)C)NC(=O)[C@H](CCCNC(=N)N)NC(=O)[C@@H]2CCCN2C(=O)[C@H](CCCNC(=N)N)NC(=O)[C@@H]2CCC(=O)N2)CSSC[C@@H](C(=O)N[C@@H](Cc2ccccc2)C(=O)O)NC1=O` [Example 38, pE-R-P-R-L-C-H-E-G-P-Nle-C-F-OH] ([pGlu]RPRLCHEGP[Nle]CF-OH; disulfide 6-12), with above 1000 min; and `CCCC[C@@H]1NC(=O)[C@@H]2CCCN2C(=O)CNC(=O)[C@H](CCCCN)NC(=O)[C@H](Cc2c[nH]cn2)NC(=O)[C@@H](NC(=O)[C@H](CC(C)C)NC(=O)[C@H](CCCNC(=N)N)NC(=O)[C@H](CCCCN)NC(=O)[C@H](CCCNC(=N)N)NC(=O)[C@@H]2CCC(=O)N2)CSSC[C@@H](C(=O)N[C@@H](Cc2ccccc2)C(=O)O)NC1=O` [Example 34, pE-R-K-R-L-C-H-K-G-P-Nle-C-F-OH] ([pGlu]RKRLCHKGP[Nle]CF-OH; disulfide 6-12), with 505 min. Then `CCCC[C@@H]1NC(=O)[C@@H]2CCCN2C(=O)[C@H](CC(C)C)NC(=O)[C@H](CCCCN)NC(=O)[C@H](Cc2c[nH]cn2)NC(=O)[C@@H](NC(=O)[C@H](CC(C)C)NC(=O)[C@H](CCCNC(=N)N)NC(=O)[C@@H]2CCCN2C(=O)[C@H](CCCNC(=N)N)NC(=O)[C@@H]2CCC(=O)N2)CSSC[C@@H](C(=O)N[C@@H](Cc2ccccc2)C(=O)O)NC1=O` [Example 44, pE-R-P-R-L-C-H-K-L-P-Nle-C-F-OH] ([pGlu]RPRLCHKLP[Nle]CF-OH; disulfide 6-12), with 856 min; and `CCCC[C@@H]1NC(=O)[C@@H]2CCCN2C(=O)CNC(=O)[C@H](CCCCN)NC(=O)[C@H](Cc2c[nH]cn2)NC(=O)[C@@H](NC(=O)[C@H](CCCCN)NC(=O)[C@H](CCCNC(=N)N)NC(=O)[C@@H]2CCCN2C(=O)[C@H](CCCNC(=N)N)NC(=O)[C@@H]2CCC(=O)N2)CSSC[C@@H](C(=O)N[C@@H](Cc2ccccc2)C(=O)O)NC1=O` [Example 37, pE-R-P-R-K-C-H-K-G-P-Nle-C-F-OH] ([pGlu]RPRKCHKGP[Nle]CF-OH; disulfide 6-12), with 164 min; and `CCCCCCCCCCCCCC(=O)NCCOCCOCC(=O)NCCOCCOCC(=O)N[C@@H](CCC(N)=O)C(=O)N[C@@H](CCCNC(=N)N)C(=O)N1CCC[C@H]1C(=O)N[C@@H](CCCNC(=N)N)C(=O)N[C@@H](CC(C)C)C(=O)N[C@H]1CSSC[C@@H](C(=O)N[C@H](Cc2ccccc2)C(=O)O)NC(=O)[C@H](CCCC)NC(=O)[C@@H]2CCCN2C(=O)CNC(=O)[C@H](CCCCN)NC(=O)[C@H](Cc2c[nH]cn2)NC1=O` [Example 58, Myristoyl-O2Oc-O2Oc-Q-R-P-R-L-C-H-K-G-P-Nle-C-f-OH] ({Myristoyl-AEEA-AEEA}-QRPRLCHKGP[Nle]C[dF]-OH; disulfide 6-12), with above 1000 min. `CCCC[C@@H]1NC(=O)[C@@H]2CCCN2C(=O)CNC(=O)[C@H](CCCCN)NC(=O)[C@H](Cc2c[nH]cn2)NC(=O)[C@@H](NC(=O)[C@H](CC(C)C)NC(=O)[C@H](CCCNC(=N)N)NC(=O)[C@@H]2CCCN2C(=O)[C@H](CCC(=O)O)NC(=O)[C@@H]2CCC(=O)N2)CSSC[C@@H](C(=O)N[C@@H](Cc2ccccc2)C(=O)O)NC1=O` [Example 32, pE-E-P-R-L-C-H-K-G-P-Nle-C-F-OH] ([pGlu]EPRLCHKGP[Nle]CF-OH; disulfide 6-12): the half-life was above 1000 min.

Regarding `CCCC[C@@H]1NC(=O)[C@@H]2CCCN2C(=O)CNC(=O)[C@H](Cc2ccccc2)NC(=O)[C@H](Cc2c[nH]cn2)NC(=O)[C@@H](NC(=O)[C@H](CC(C)C)NC(=O)[C@H](CCCNC(=N)N)NC(=O)[C@@H]2CCCN2C(=O)[C@H](CCCNC(=N)N)NC(=O)[C@@H]2CCC(=O)N2)CSSC[C@@H](C(=O)NCCc2ccccc2)NC1=O` [Example 19, pE-R-P-R-L-C-H-F-G-P-Nle-C-Phenethylamine] ([pGlu]RPRLCHFGP[Nle]C-NHPhenethyl; disulfide 6-12), the half-life came out at 28.4 min. Then `CCCC[C@@H]1NC(=O)[C@@H]2CCCN2C(=O)CNC(=O)[C@H](CCCCN)NC(=O)[C@H](Cc2c[nH]cn2)NC(=O)[C@@H](NC(=O)[C@H](CC(C)C)NC(=O)[C@H](Cc2ccccc2)NC(=O)[C@@H]2CCCN2C(=O)[C@H](CCCNC(=N)N)NC(=O)[C@@H]2CCC(=O)N2)CSSC[C@@H](C(=O)N[C@@H](Cc2ccccc2)C(=O)O)NC1=O` [Example 36, pE-R-P-F-L-C-H-K-G-P-Nle-C-F-OH] ([pGlu]RPFLCHKGP[Nle]CF-OH; disulfide 6-12), with above 1000 min; and `CCCC[C@@H]1NC(=O)[C@@H]2CCCN2C(=O)[C@H](CC(=O)O)NC(=O)[C@H](CCCCN)NC(=O)[C@H](Cc2c[nH]cn2)NC(=O)[C@@H](NC(=O)[C@H](CC(C)C)NC(=O)[C@H](CCCNC(=N)N)NC(=O)[C@@H]2CCCN2C(=O)[C@H](CCCNC(=N)N)NC(=O)[C@@H]2CCC(=O)N2)CSSC[C@@H](C(=O)N[C@@H](Cc2ccccc2)C(=O)O)NC1=O` [Example 39, pE-R-P-R-L-C-H-K-D-P-Nle-C-F-OH] ([pGlu]RPRLCHKDP[Nle]CF-OH; disulfide 6-12), with 655 min; and `CCCC[C@@H]1NC(=O)[C@@H]2CCCN2C(=O)CNC(=O)[C@H](CCCCN)NC(=O)[C@H](Cc2c[nH]cn2)NC(=O)[C@@H](NC(=O)[C@H](CC(C)C)NC(=O)[C@H](CCCNC(=N)N)NC(=O)[C@@H]2CCCN2C(=O)[C@H](CCCNC(=N)N)NC(=O)[C@@H]2CCC(=O)N2)CCSSCC[C@@H](C(=O)N[C@@H](Cc2ccccc2)C(=O)O)NC1=O` [Example 52, pE-R-P-R-L-hC-H-K-G-P-Nle-hC-F-OH] ([pGlu]RPRL[hCys]HKGP[Nle][hCys]F-OH; disulfide 6-12), with 778 min.

The compound `CCCC[C@@H]1NC(=O)[C@@H]2CCCN2C(=O)CNC(=O)[C@H](CCCCN)NC(=O)[C@H](Cc2c[nH]cn2)NC(=O)[C@H](NC(=O)[C@H](CC(C)C)NC(=O)[C@H](CCCNC(=N)N)NC(=O)[C@@H]2CCCN2C(=O)[C@H](CCCNC(=N)N)NC(=O)[C@@H]2CCC(=O)N2)CSSC[C@H](C(=O)N[C@@H](Cc2ccccc2)C(=O)O)NC1=O` [Example 57, pE-R-P-R-L-c-H-K-G-P-Nle-c-F-OH] ([pGlu]RPRL[dC]HKGP[Nle][dC]F-OH; disulfide 6-12) registered a half-life above 1000 min. Then `CCCC[C@@H]1NC(=O)[C@@H]2CCCN2C(=O)CNC(=O)[C@H](CCCCN)NC(=O)[C@H](Cc2c[nH]cn2)NC(=O)[C@@H](NC(=O)[C@H](CC(C)C)NC(=O)[C@H](CCCNC(=N)N)NC(=O)[C@@H]2CCCN2C(=O)[C@H](CCCNC(=N)N)NC(=O)[C@@H]2CCC(=O)N2)CSSC[C@H](C(=O)N[C@@H](Cc2ccccc2)C(=O)O)NC1=O` [Example 56, pE-R-P-R-L-C-H-K-G-P-Nle-c-F-OH] ([pGlu]RPRLCHKGP[Nle][dC]F-OH; disulfide 6-12), with above 1000 min; and `CCCC[C@@H]1NC(=O)[C@@H]2CCCN2C(=O)CNC(=O)[C@H](CCCCN)NC(=O)[C@H](Cc2c[nH]cn2)NC(=O)[C@@H](NC(=O)[C@H](CC(C)C)NC(=O)[C@H](CCCNC(=N)N)NC(=O)[C@@H]2CCCN2C(=O)[C@H](CCCNC(=N)N)NC(=O)[C@@H]2CCC(=O)N2)CSSC[C@@H](C(=O)N[C@@H](Cc2ccccc2)C(N)=O)NC1=O` [Example 62, pE-R-P-R-L-C-H-K-G-P-Nle-C-F-NH2] ([pGlu]RPRLCHKGP[Nle]CF-NH2; disulfide 6-12), with above 1000 min; and `CCCC[C@@H]1NC(=O)[C@@H]2CCCN2C(=O)CNC(=O)[C@H](CCCCN)NC(=O)[C@H](Cc2c[nH]cn2)NC(=O)[C@@H](NC(=O)[C@H](CC(C)C)NC(=O)[C@H](CCC(=O)O)NC(=O)[C@@H]2CCCN2C(=O)[C@H](CCCNC(=N)N)NC(=O)[C@@H]2CCC(=O)N2)CSSC[C@@H](C(=O)N[C@@H](Cc2ccccc2)C(=O)O)NC1=O` [Example 40, pE-R-P-E-L-C-H-K-G-P-Nle-C-F-OH] ([pGlu]RPELCHKGP[Nle]CF-OH; disulfide 6-12), with above 1000 min. Take `CCCC[C@@H]1NC(=O)[C@@H]2CCCN2C(=O)CNC(=O)[C@H](CCCCN)NC(=O)C(C)(C)NC(=O)[C@@H](NC(=O)[C@H](CC(C)C)NC(=O)[C@H](CCCNC(=N)N)NC(=O)[C@@H]2CCCN2C(=O)[C@H](CCCNC(=N)N)NC(=O)C2CCNCC2)CSSC[C@@H](C(=O)N[C@H](Cc2ccccc2)C(=O)O)NC1=O` [Example 11, H-Isn-R-P-R-L-C-Aib-K-G-P-Nle-C-f-OH] (H-[Inp]RPRLC[Aib]KGP[Nle]C[dF]-OH; disulfide 6-12): the half-life is above 1000 min.
